Laboratory results published in publication PMC3154276, “The Effect of the Potential PhoQ Histidine Kinase Inhibitors on Shigella flexneri Virulence” (PLoS ONE, 2011).

Tests used:
[1] = tested on: S. flexneri 2a 301; test: Gentamicin protection assay, HeLa cell invasion by Sf301; assay type: cell-based; conditions: bacteria treated 8 h, Figure S4
Protocol: Supplementary file pone.0023100.s004.tif: Figure S4 The effects of potential PhoQ inhibitors on cell invasion of Shigella Sf 301. […] The bacteria were treated with each of the four potential PhoQ inhibitors grown for 8 h. Then the bacteria were inoculated with HeLa cells for 60 minutes prior to the addition of gentamicin to kill extracellular bacteria. After the incubation, the HeLa cells in each well were lysed in 1 ml of PBS containing 0.1% Triton X-100. The lysates were diluted and plated onto LB agar plates in triplicate. Colonies grown on LB plates were counted. The results of the assays were expressed as the number of bacteria recovered from gentamicin-treated cells divided by the number of inoculated bacteria added to the cell. Values are means ± standard deviations from 6 independent wells. *p<0.01 vs. Sf301. […] (TIF) Click here for additional data file.

[2] = biological target: T1, SF-PhoQc (Shigella flexneri, UniProt Q83RR1); test: Luminescent Kinase Assay of SF-PhoQc; assay type: biochemical, S. flexneri 2a 301
T1 construct: The amplified DNA segment encodes PhoQ HK amino acids 251–486; made in house; host or cells: E. coli JM109
T1 sequence (Q83RR1 251-486): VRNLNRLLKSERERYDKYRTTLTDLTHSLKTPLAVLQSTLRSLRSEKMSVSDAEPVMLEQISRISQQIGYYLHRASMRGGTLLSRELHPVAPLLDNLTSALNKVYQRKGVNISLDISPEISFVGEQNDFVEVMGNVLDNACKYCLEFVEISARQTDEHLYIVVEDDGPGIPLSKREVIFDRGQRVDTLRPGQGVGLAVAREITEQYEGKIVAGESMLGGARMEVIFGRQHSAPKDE
Protocol: Luminescent Kinase Assay was used to confirm the effects of compounds 1, 2, 3 and 4 on the enzymatic activity of SF-PhoQc. In the Luminescent Kinase Assay, the putative kinase activity of SF-PhoQc protein was measured by quantifying the amount of ATP that remained in solution after the reaction. […] Next, the effect of each compound on the enzymatic activity of SF-PhoQc was measured.
In the Luminescent Kinase assay, reactions were performed in solid black, flat-bottomed 96-well plates. To determine the IC50 of potential PhoQ HK inhibitors, each compound underwent 2-fold serial dilutions with DMSO (0.1%) and was added into the reaction mixture. The final reaction mixture contained 4 µg of purified SF-PhoQc, 40 mmol/L Tris-Cl (pH 7.5), 16 mmol/L MgCl2, 0.8 mmol/L DTT and different concentration of 100, 50, 25, 12.5, 6.25 or 3.125 µmol/L compound, respectively. After incubation at 30°C for 25 minutes, 3 µmol/L ATP was added, and the reaction was incubated at 30°C for another 25 minutes. Next, an equal volume of Luminescent Kinase Reagent was added to each well, mixed and kept at room temperature for 10 minutes before recording the luminescence reading on a Fluoroskan Ascent FL machine (Thermo Scientific, USA). The rate of phosphorylation inhibition by a compound was calculated with the following formula: [drawing 2]
The IC50 value of each compound was determined using the Origin 7.0 software (OriginLab, Northampton, USA).

[3] = tested on: Salmonella enterica Typhimurium SL1344; test: Salmonella cell invasion assay (gentamicin protection, HeLa cells); assay type: cell-based; conditions: for cell invasion rate of Salmonella enterica Typhimurium SL1344: HeLa cells, untreated Salmonella 6×10^−2; for effect on cell invasion of Salmonella SL1344 (words, discussion): Figure 7, concentration not restated
Protocol: The effects of potential PhoQ inhibitors on cell invasion of Salmonella were determined by gentamicin protection assay.
Figure 7 The effects of potential PhoQ inhibitors on cell invasion of Salmonella. […] The bacteria pre-treated with potential PhoQ inhibitor were added to HeLa cells at a multiplicity of infection of 100. Then gentamicin was added to kill extracellular bacteria and cell lysates were plated onto LB plates, and the colonies were counted. The results of the assays were expressed as the number of bacteria recovered from gentamicin-treated cells divided by the number of inoculated bacteria added to the cell. Salmonella enterica typhimurium SL1344 served as the positive control for the cell invasion assay; E. coli ATCC 25922 (treated without DMSO), an avirulent strain, served as the negative control for the cell invasion assay; bacteria treated with 0.1% DMSO also served as a control for the cell invasion assay. Values are means ± standard deviations from 6 independent wells. *p<0.01 vs. SL1344.
The gentamicin protection assay was used as a cellular model to evaluate the inhibitory effect of the four potential PhoQ inhibitors. Salmonella enterica typhimurium SL1344 was treated with each of the four potential PhoQ inhibitors (final concentrations: potential PhoQ inhibitor 1 was 12.5 µmol/L, 2 was 25 µmol/L, 3 was 100 µmol/L and 4 was 100 µmol/L) and grown for 8 hours. The bacteria pre-treated with potential PhoQ inhibitor without washing, were added to HeLa cells at a multiplicity of infection of 100, at the same time the bacteria were diluted and plated onto LB agar plates. The CFUs were counted as initial bacterial number before added into HeLa cells. Next, the bacteria were inoculated to HeLa cells and incubated with for 60 minutes prior to the addition of gentamicin to kill extracellular bacteria. After the incubation, the HeLa cells in each well were lysed in 1 ml of PBS containing 0.1% Triton X-100 for 10 minutes at room temperature. The lysates were diluted and plated onto LB agar plates in triplicate. Colonies grown on LB plates were counted. The results of the assays were expressed as the number of bacteria recovered from gentamicin-treated cells divided by the number of inoculated bacteria added to the cell. After lysates of HeLa cells were plated, the number of CFU that formed on LB agar were counted. The cells were inoculated with untreated SL1344 (treated without DMSO) as a positive control and E. coli ATCC 25922, an avirulent strain treated without DMSO, as a negative control. SL1344 was treated with the same amount of 0.1% DMSO as the other groups to control for any DMSO-specific effects. The cell invasion assay was performed in triplicate for each potential PhoQ inhibitor, and the assay was repeated twice.

Row | Structure (SMILES) | effect on HeLa cell invasion ability of Sf301 [1] | IC50 [2] | times lower invasion than the control, SL1344 ([3]; 100 µmo/L) | cell invasion rate of Salmonella enterica Typhimurium SL1344 ([3]; 100 µmo/L) | effect on cell invasion of Salmonella SL1344 (words, discussion) [3] | times lower invasion than the control, SL1344 ([3]; 25 µmo/L) | cell invasion rate of Salmonella enterica Typhimurium SL1344 ([3]; 25 µmo/L) | times lower invasion than the control, SL1344 ([3]; 12.5 µmo/L) | cell invasion rate of Salmonella enterica Typhimurium SL1344 ([3]; 12.5 µmo/L) | effect on cell invasion of SL1344 ([3]; 100 µmo/L)
1 | O=C(O)c1ccc(Cl)c(-c2ccc(/C=N/NC(=O)c3ccc(Br)cc3)o2)c1 [Compound 3] | can inhibit | 7.99 ± 5.61 µM | 166 times | 0.036×10^−2 | inhibited | – | – | – | – | –
2 | CCOc1ccccc1-c1cc(C(=O)N/N=C/c2ccc(OCc3ccccc3)c(OC)c2)c2ccccc2n1 [Compound 2] | can inhibit | 48.9 ± 14.7 µM | – | – | inhibited | 3.84 times | 1.564×10^−2 | – | – | –
3 | O=C(Nc1ccc(C2(c3cccc(NC(=O)c4cccc5ccccc45)c3)c3ccccc3C(=O)c3ccccc32)cc1)c1ccc2ccccc2c1 [Compound 1] | can inhibit | 69.37 ± 0.56 µM | – | – | inhibited | – | – | 6.74 times | 0.89×10^−2 | –
4 | O=C(O)c1cc(-c2ccc(-c3ccccc3Cl)o2)nc2ccc3ccccc3c12 [Compound 4] | no effect | 27.2 ± 15.4 µM | – | 5.7×10^−2 | no obvious effect | – | – | – | – | no obvious effect
